Data on 13 compounds can be found in patent US5294701A, “Anthracycline compounds and intermediates” (Pharmachemie B.V., priority 1990, dated 1994).

Converted amounts (≈) assume the structure as drawn. Where a name gives a salt, the structure may show the parent alone. Read-outs that look alike come from different tables or passages of the source.

Type in all cases: cell-based
Assay [1] has as its system MCF-7 mammary carcinoma cells (M-cells). The assay is described as follows: Inhibition of growth of human tumour cell line MCF-7 in vitro (PIT method of van Lambalgen and Lelieveld). The method, then: (§1) A number of compounds were examined with the following human tumour cell lines according to the method of R. van Lambalgen and P. Lelieveld, "The PIT method: and automated in vitro technique for drug toxicity testing", Invest. New Drugs 5, 161-165, 1987.
MCF-7 mammary carcinoma cells (M-cells)
(§2) The cell lines where maintained in a continuous logarithmic culture in Dulbeco's medium supplemented with 10% fetal calf serum, penicillin (100 IU/ml) and streptomycin (100 μg/ml).
(§3) The ID50 values of the above compounds, expressed in ng/ml, where determined according to the abovementioned method of van Lambalgen and Lelieveld. The ID50 value is the amount which inhibits 50% of the cell growth.

Assay [2] concerns T 24 bladder carcinoma cells (T-cells). The assay is described as follows: Inhibition of growth of human tumour cell line T 24 in vitro (PIT method of van Lambalgen and Lelieveld). As to the method: as §1
T 24 bladder carcinoma cells (T-cells)
as §2, §3

The subject of assay [3] is A 204 rhabdomyosarcoma (A-cells). The assay is described as follows: Inhibition of growth of human tumour cell line A 204 in vitro (PIT method of van Lambalgen and Lelieveld). As to the method: as §1
A 204 rhabdomyosarcoma (A-cells)
as §2, §3

Assay [4] deals with IgR-37 melanoma cells (Z-cells). Put plainly: Inhibition of growth of human tumour cell line IgR-37 in vitro (PIT method of van Lambalgen and Lelieveld). As to the method: as §1
IgR-37 melanoma cells (Z-cells)
as §2, §3

The subject of assay [5] is WiDr colon tumour cells (W-cells). Put plainly: Inhibition of growth of human tumour cell line WiDr in vitro (PIT method of van Lambalgen and Lelieveld). The settings on record: read-out: ID50 values in ng/ml, WiDr (amount which inhibits 50% of the cell growth). The method, then: as §1
WiDr colon tumour cells (W-cells)
as §2, §3

[6] abbreviates: MCF7, read-out: ID50 values in ng/ml, MCF-7 (amount which inhibits 50% of the cell growth).
[7] abbreviates: T24, read-out: ID50 values in ng/ml, T24 (amount which inhibits 50% of the cell growth).
[8] abbreviates: A204, read-out: ID50 values in ng/ml, A204 (amount which inhibits 50% of the cell growth).
[9] abbreviates: IGR-37, read-out: ID50 values in ng/ml, IgR-37 (amount which inhibits 50% of the cell growth).
Setting [10] is: MCF7, MCF-7 mammary carcinoma cells, read-out: ID50 values in ng/ml, MCF-7 (amount which inhibits 50% of the cell growth).
[11] abbreviates: T24, T 24 bladder carcinoma cells, read-out: ID50 values in ng/ml, T24 (amount which inhibits 50% of the cell growth).
[12] abbreviates: A204, A 204 rhabdomyosarcoma cells, read-out: ID50 values in ng/ml, A204 (amount which inhibits 50% of the cell growth).
The mark [13] stands for this setting: IgR-37 melanoma cells, read-out: ID50 values in ng/ml, IgR-37 (amount which inhibits 50% of the cell growth).

With `COc1cccc2c1C(=O)c1c(O)c3c(c(O)c1C2=O)C[C@@](O)(C(=O)CO)C[C@@H]3O[C@H]1C[C@H](N)[C@H](O)[C@H](C)O1` [Adramycin.HCl, Adriamycin, reference compound], the IC50 in assay [1] (setting [6]) was 6 ng/mL; in assay [2] (setting [7]) it was 18 ng/mL; in assay [3] (setting [8]), 4 ng/mL; in assay [4] (setting [9]) it was 6 ng/mL; in assay [5] (WiDr) it was 16 ng/mL.
Regarding `COc1cccc2c1C(=O)c1c(O)c3c(c(O)c1C2=O)C[C@@](O)(C(C)=O)C[C@@H]3O[C@H]1C[C@H](N)[C@H](O)[C@H](C)O1` [Daunomycin.HCl, Daunomycin, reference compound], the IC50 in assay [1] (setting [6]) was determined as 1 ng/mL; in assay [2] (setting [7]), 4 ng/mL; in assay [3] (setting [8]), 1 ng/mL; in assay [4] (setting [9]), 1 ng/mL; in assay [5] (WiDr), 3 ng/mL.
On to `COc1cc([C@@H]2c3cc4c(cc3[C@@H](O[C@@H]3O[C@@H]5CO[C@@H](C)O[C@H]5[C@H](O)[C@H]3O)[C@H]3COC(=O)[C@H]23)OCO4)cc(OC)c1O` [Etoposide, reference compound], for which the IC50 is 187 ng/mL (≈ 0.318 µM) in assay [1] (setting [6]); 457 ng/mL (≈ 0.776 µM) in assay [2] (setting [7]); 91 ng/mL (≈ 0.155 µM) in assay [3] (setting [8]); 427 ng/mL (≈ 0.725 µM) in assay [4] (setting [9]); 624 ng/mL (≈ 1.06 µM) in assay [5] (WiDr).
For `C#C[C@]1(O)Cc2c(O)c3c(c(O)c2[C@@H](O[C@H]2C[C@H](N)[C@H](O)[C@H](C)O2)C1)C(=O)c1ccccc1C3=O` [HRM01], the IC50 is 1 ng/mL (≈ 0.00209 µM) in assay [1] (setting [10]); 2 ng/mL (≈ 0.00417 µM) in assay [2] (setting [11]); 0.3 ng/mL (≈ 0.000626 µM) in assay [3] (setting [12]); 2 ng/mL (≈ 0.00417 µM) in assay [4] (setting [13]); 4 ng/mL (≈ 0.00834 µM) in assay [5] (WiDr colon tumour cells).
For the compound `C[C@@H]1O[C@@H](O[C@H]2C[C@](O)(C#C[Si](C)(C)C)Cc3c(O)c4c(c(O)c32)C(=O)c2ccccc2C4=O)C[C@H](NC(=O)C(F)(F)F)[C@@H]1O` [HRM03], the IC50 in assay [1] (setting [6]) came out at 151 ng/mL (≈ 0.233 µM); in assay [2] (setting [7]), 444 ng/mL (≈ 0.686 µM); in assay [3] (setting [8]) it was 97 ng/mL (≈ 0.15 µM); in assay [4] (setting [9]) it was 146 ng/mL (≈ 0.225 µM); in assay [5] (WiDr), 156 ng/mL (≈ 0.241 µM).
As to `C#C[C@]1(O)Cc2c(O)c3c(c(O)c2[C@@H](O[C@H]2C[C@H](NC(=O)C(F)(F)F)[C@H](O)[C@H](C)O2)C1)C(=O)c1ccccc1C3=O` [HRM04], the IC50 turned out to be 14 ng/mL (≈ 0.0243 µM) in assay [1] (setting [10]); 75 ng/mL (≈ 0.13 µM) in assay [2] (setting [11]); 14 ng/mL (≈ 0.0243 µM) in assay [3] (setting [12]); 18 ng/mL (≈ 0.0313 µM) in assay [4] (setting [13]); 43 ng/mL (≈ 0.0747 µM) in assay [5] (WiDr colon tumour cells).
In the case of `CC(=O)[C@@]1(O)Cc2c(O)c3c(c(O)c2[C@H](O[C@H]2C[C@H](N)[C@H](O)[C@H](C)O2)C1)C(=O)c1ccccc1C3=O` [HRM09, α-7.9-bis-epi-4-demethoxydaunomycin, reference compound], the IC50 in assay [1] (setting [10]) came to 745 ng/mL (≈ 1.5 µM); in assay [2] (setting [11]), 1140 ng/mL (≈ 2.3 µM); in assay [3] (setting [12]), 302 ng/mL (≈ 0.607 µM); in assay [4] (setting [13]) it was 618 ng/mL (≈ 1.24 µM); in assay [5] (WiDr colon tumour cells), 501 ng/mL (≈ 1.01 µM).
On to `C#C[C@@]1(O)Cc2c(O)c3c(c(O)c2[C@H](O[C@H]2C[C@H](N)[C@H](O)[C@H](C)O2)C1)C(=O)c1ccccc1C3=O` [HRM10], for which the IC50 in assay [1] (setting [10]) was found to be 420 ng/mL (≈ 0.876 µM); in assay [2] (setting [11]), 728 ng/mL (≈ 1.52 µM); in assay [3] (setting [12]) it was 243 ng/mL (≈ 0.507 µM); in assay [4] (setting [13]), 469 ng/mL (≈ 0.978 µM); in assay [5] (WiDr colon tumour cells) it was 372 ng/mL (≈ 0.776 µM).
`CC(=O)C1(O)Cc2c(O)c3c(c(O)c2C(O[C@H]2C[C@H](N)[C@H](O)[C@H](C)O2)C1)C(=O)c1cc(C)cnc1C3=O` (some centres unmarked) [HRM11]: the IC50 in assay [1] (setting [10]) was found to be 67 ng/mL (≈ 0.131 µM); in assay [2] (setting [11]), 173 ng/mL (≈ 0.338 µM); in assay [3] (setting [12]), 45 ng/mL (≈ 0.0878 µM); in assay [4] (setting [13]), 77 ng/mL (≈ 0.15 µM); in assay [5] (WiDr colon tumour cells) it was 139 ng/mL (≈ 0.271 µM).
Regarding `C#C[C@]1(O)Cc2c(O)c3c(c(O)c2[C@@H](O[C@H]2C[C@H](N)[C@H](O)[C@H](C)O2)C1)C(=O)c1c(OC)cccc1C3=O` [HRM12], the IC50 in assay [1] (setting [10]) was found to be 39 ng/mL (≈ 0.0765 µM); in assay [2] (setting [11]) it was 140 ng/mL (≈ 0.275 µM); in assay [3] (setting [12]), 21 ng/mL (≈ 0.0412 µM); in assay [4] (setting [13]) it was 63 ng/mL (≈ 0.124 µM); in assay [5] (WiDr colon tumour cells), 87 ng/mL (≈ 0.171 µM).
On to `CC(=O)[C@]1(O)CC2=C(C(=O)c3c(O)ccc(O)c3C2=O)[C@@H](O[C@H]2C[C@H](N)[C@H](O)[C@H](C)O2)C1` [HRM13], for which the IC50 in assay [1] (setting [10]) stood at 542 ng/mL (≈ 1.21 µM); in assay [2] (setting [11]) it was 1050 ng/mL (≈ 2.34 µM); in assay [3] (setting [12]), 729 ng/mL (≈ 1.63 µM); in assay [4] (setting [13]), 2440 ng/mL (≈ 5.46 µM); in assay [5] (WiDr colon tumour cells) it was 1420 ng/mL (≈ 3.18 µM).
For the compound `CC(=O)C1(O)Cc2c(O)c3c(c(O)c2C(O[C@H]2C[C@H](N)[C@H](O)[C@H](C)O2)C1)C(=O)c1ncc(C)cc1C3=O` (some centres unmarked) [HRM15], the IC50 amounted to 334 ng/mL (≈ 0.652 µM) in assay [1] (setting [10]); 949 ng/mL (≈ 1.85 µM) in assay [2] (setting [11]); 171 ng/mL (≈ 0.334 µM) in assay [3] (setting [12]); 459 ng/mL (≈ 0.896 µM) in assay [4] (setting [13]); 779 ng/mL (≈ 1.52 µM) in assay [5] (WiDr colon tumour cells).
As to `C#C[C@]1(O)CC2=C(C(=O)c3c(O)ccc(O)c3C2=O)[C@@H](O[C@H]2C[C@H](N)[C@H](O)[C@H](C)O2)C1` [HRM16], the IC50 turned out to be 338 ng/mL (≈ 0.787 µM) in assay [1] (setting [10]); 1260 ng/mL (≈ 2.94 µM) in assay [2] (setting [11]); 280 ng/mL (≈ 0.652 µM) in assay [3] (setting [12]); 1940 ng/mL (≈ 4.51 µM) in assay [4] (setting [13]); 2120 ng/mL (≈ 4.93 µM) in assay [5] (WiDr colon tumour cells).
